This series in a line: Polarity measured as dielectric constant with a dielectric constant meter. In kind it is physicochemical. An excerpt:
Polar solvents such as water heat up in a microwave much faster than non-polar oils. Flavors heat up somewhere in between depending on their polarity. Dipolar moment of molecules of various liquids is different and can be a measure of polarity of liquids. The dipolar moment is responsible for interaction of molecules in a liquid with the electromagnetic field of a microwave oven. One measure of dipolar moment is dielectric constant. Thus, dielectric constant is a sound measure of flavor polarity and can predict flavor properties and flavor-matrix interaction whether during processing or in final target applications. An example of one commercially available dielectric constant meter useful with the method described herein is a model BI-870 from Brookhaven Instruments. It can measure dielectric constant not only at 20° C. but in a broad temperature range.
In support of development of flavors, encapsulation technologies, and applications, dielectric constant of key solvents used in flavor formulation (Table 1) were measured and a variety of target flavors (Table 2). […] Dielectric constants of binary blends of components fall in the range between the dielectric constants of individual components.

`CCO` [Ethanol (95%), Ethanol] had a Dielectric constant (solvents, at about 20° C.) of 28.3. Still for that read-out and setting: as for `OCC(O)CO` [Glycerin], the figure is 46.1.

`CC(=O)OCC(COC(C)=O)OC(C)=O` [Triacetin] registered a Dielectric constant (solvents, at about 20° C.) of 7.0. The same measure, in the same setting: as for `OCc1ccccc1` [Benzyl alcohol], the figure is 13.8. Turning to `O` [Water deionized, Water], the Dielectric constant result was “about 80” (at 20° C., general statement) and 79.2 (solvents, at about 20° C.). On to `CC(=O)C(C)=O` [Diacetyl], for which, where the note is “flavor components and compounded flavors incl. listed solvent, at about 20° C.”, the Dielectric constant is on record as 4.4.

On to `CC(O)CO` (stereo not drawn) [Propylene glycol], for which the Dielectric constant (solvents, at about 20° C.) amounted to 28.7. On the same count and under the same terms, with `CC(C)O` [Isopropanol] the figure was 20.8.

Source of the values: patent US20190234926A1, “METHOD OF PREDICTING FLAVOR PERFORMANCE” (McCormick & Company, Incorporated, priority 2016, published 2019).
